Patent EP4613273A1, “TREATMENT OF BONE LOSS” (priority 2024, dated 2025)
Structures can show the parent of a compound that is named as a salt.

Key:
CTX-1 = test: Plasma CTX-1 (bone resorption marker) in healthy cats; format: in vivo; details: for pre-dose plasma CTX-1 during repeated administration: once-a-day oral 2 and 10 mg/kg, 14 days
Procedure: MIV-701 besylate salt was administered once daily for 14 days to 4 healthy cats at three increasing doses: 2 mg/kg, 10 mg/kg and 50 mg/kg.
The three doses were consecutively administered for 14 days with a >5-day washout period between two dose levels.
Each treatment period can be resumed as follows: • J0 (T+24h): first administration, withdrawal of blood samples for pharmacokinetic and plasma CTX-1 assessment (pre-dose and 0.5h, 1h, 2h, 4h, 8h and 24h after first drug administration), pre-dose blood samples for hematology and clinical biochemistry (baseline values for safety assessment). • J5 ([…]) and J8: pre-dose blood samples. • J13: last administration, withdrawal of plasma samples for pharmacokinetic and plasma CTX-1 assessment (pre-dose and 0.5h, 1h, 2h, 4h, 8h and 24h after last drug administration), pre-dose sampling for hematology and clinical biochemistry (baseline values for safety assessment). • J15 to J≥19: washout period.

[1] = Tolerance, hematology, biochemistry and calcium during 90-day treatment in dogs with periodontal disease; format: in vivo; set-up: Platelet: unit not given here; details: for Alanine transferase / Albumin / Albumin/Globulin ratio / Alkalin phosphatase / BUN/Creatinine ratio / Basophil / Creatinine / Eosinophil / Globulin / Glucose / HCT / HGB / Lymphocyte / MCH / MCHC / MCV / Monocyte / Neutrophil / Platelet / RBC / Reticulocyte / Total calcium / Total protein / Urea: mean
Procedure: The present study was performed on 10 Beagle dogs suffering from alveolar bone loss induced by spontaneously developed periodontal disease. All dogs were treated with MIV-701 besylate salt for minimum 30 day and maximum 90 days, depending on the tolerance at intermediate visits. The product is administrated to the dog by its owner at home, once a day with a meal.
There were two treatment groups: • Group A (5 dogs) with a dose of 25 mg/kg. • Group B (5 dogs) with a dose of 50 mg/kg.
Treatment was administrated for 90 days. Every 30 days, based on the results of clinical exam, blood parameters and potential occurrence of adverse events suspected to be drug-related, the treatment prolongation for another 30 days, or discontinuation of treatment was decided by the Investigator.
Whole blood sample for hematology analysis was collected at visit V1 (between Day -7 and Day 0), visit V3 (Day 30+3 days), Visit V4 (Day 60t 3 days) and Visit V5 (Day 90t 3 days).
The result from visit V1 (between Day -7 and Day 0) was used as a baseline value for the safety evaluation criteria.
Each time 1 ml of the peripheral whole blood was collected on a tube with anti-coagulant (EDTA) and gently inverted several times. A complete blood count: WBC with details of lymphocytes, monocytes and polynuclear cells (neutrophils, eosinophils and basophils); Red blood cells (RBC); Hematocrit (HCT); Hemoglobin (HGB); Reticulocytes (RETIC); Mean corpuscular volume (MCV); Mean Corpuscular Hemoglobin (MCH); Mean Corpuscular Hemoglobin Concentration (MCHC); platelets count (PLT) was performed.
Whole blood sample for biochemistry analysis was collected at visit V1 (between Day -7 and Day 0), visit V3 (Day 30+3 days), Visit V4 (Day 60t 3 days) and Visit V5 (Day 90t 3 days).
Each time 1.3 ml of the peripheral whole blood was collected on lithium heparin tube and gently inverted several times. Next, sample was centrifuged at 2500 G for 5 minutes at room temperature and heparin plasma will be collected. The following biochemical parameters: Albumin, Alanine transaminase (ALT), Alkaline phosphatase (ALP), creatinine, globulins, glucose, Total proteins, Urea, Albumin/globulin ratio and urea/creatinine ratio were analyzed.

[2] = dogs with periodontal disease, 90-day treatment
[3] = Day 30, 25 or 50 mg/kg/day oral
[4] = Day 60, 25 or 50 mg/kg/day oral
[5] = Day 90, all dogs 50 mg/kg/day for last 30 days

CC(C)C[C@H](NC(=O)c1ccc(-c2csc(N3CCN(C)CC3)n2)cc1)C(=O)N1C[C@H](F)[C@H]2OCC(O)(O)[C@H]21 [MIV-701 besylate salt, N-[(S)-1-((3aS,6S,6aS)-6-Fluoro-S-oxo-hexahydro-furo[3,2-b]pyrrole-4-carbony)-3-methyl-butyl]-4-[2-(4-methyl-piperazin-1-yl)-thiazol-4-yl]-benzamide benzenesulphonate]
inhibition of plasma CTX-1 vs baseline (CTX-1; 10 mg/kg once a day, end of the 14 days treatment period): 60%
time of CTX-1 inhibition peak after administration (CTX-1; D0, three doses tested): 4 h
pre-dose plasma CTX-1 during repeated administration (CTX-1): rapid drop
pre-dose plasma CTX-1 during repeated administration (CTX-1; listed as MIV-701-besylate): sustained inhibition
CTX-1 plasma concentration 24 hours after administration (CTX-1; single dose, all doses tested): did not go back to pre-dose concentration
reduction of plasma CTX-1 (CTX-1; single oral administration (D0) at 2, 10 and 50 mg/kg): comparable reduction of plasma CTX-1
death and Serious Adverse Event (SAE) [1, 2]: No death and no Serious Adverse Event (SAE)
evolution of blood cell count and clinical biochemistry parameters [1, 2]: No safety concern
tolerance ([1]; dogs with periodontal disease, once-a-day 25 and 50 mg/kg/day, 90-day treatment period): well tolerated
Alanine transferase [1, 3]: 37,9 U/L
Albumin [1, 3]: 26,3 g/L
Albumin/Globulin ratio [1, 3]: 0,61
Alkalin phosphatase [1, 3]: 31,5 U/L
BUN/Creatinine ratio [1, 3]: 17,8
Basophil [1, 3]: 0,03 10^9/L
Creatinine [1, 3]: 57,8 µmol/L
Eosinophil [1, 3]: 1,3 10^9/L
Globulin [1, 3]: 43,6 g/L
Glucose [1, 3]: 5,3 mmol/L
HCT [1, 3]: 41,8%
HGB [1, 3]: 14,2 g/DL
Lymphocyte [1, 3]: 1,7 10^9/L
MCH [1, 3]: 21,5 pg
MCHC [1, 3]: 33,9 g/DL
MCV [1, 3]: 63,5 fL
Monocyte [1, 3]: 0,8 10^9/L
Neutrophil [1, 3]: 7,7 10^9/L
Platelet [1, 3]: 381,3
RBC [1, 3]: 6,6 10^12/L
Reticulocyte [1, 3]: 32,0 K/µL
Total calcium [1, 3]: 2,4 mmol/L
Total protein [1, 3]: 7,0 g/dL
Urea [1, 3]: 4,0 mmol/L
Alanine transferase [1, 4]: 41,7 U/L
Albumin [1, 4]: 26,9 g/L
Albumin/Globulin ratio [1, 4]: 0,65
Alkalin phosphatase [1, 4]: 31,6 U/L
BUN/Creatinine ratio [1, 4]: 21,7
Basophil [1, 4]: 0,03 10^9/L
Creatinine [1, 4]: 62,7 µmol/L
Eosinophil [1, 4]: 1,2 10^9/L
Globulin [1, 4]: 40,6 g/L
Glucose [1, 4]: 5,7 mmol/L
HCT [1, 4]: 40,0%
HGB [1, 4]: 13,6 g/DL
Lymphocyte [1, 4]: 1,7 10^9/L
MCH [1, 4]: 21,8 pg
MCHC [1, 4]: 33,8 g/DL
MCV [1, 4]: 64,6 fL
Monocyte [1, 4]: 0,7 10^9/L
Neutrophil [1, 4]: 7,0 10^9/L
Platelet [1, 4]: 384,8
RBC [1, 4]: 6,2 10^12/L
Reticulocyte [1, 4]: 22,9 K/µL
Total calcium [1, 4]: 2,3 mmol/L
Total protein [1, 4]: 6,8 g/dL
Urea [1, 4]: 5,4 mmol/L
Alanine transferase [1, 5]: 36,8 U/L
Albumin [1, 5]: 28,3 g/L
Albumin/Globulin ratio [1, 5]: 0,65
Alkalin phosphatase [1, 5]: 45,4 U/L
BUN/Creatinine ratio [1, 5]: 22,8
Basophil [1, 5]: 0,02 10^9/L
Creatinine [1, 5]: 60,2 µmol/L
Eosinophil [1, 5]: 1,2 10^9/L
Globulin [1, 5]: 43,0 g/L
Glucose [1, 5]: 5,7 mmol/L
HCT [1, 5]: 40,1%
HGB [1, 5]: 13,6 g/DL
Lymphocyte [1, 5]: 1,7 10^9/L
MCH [1, 5]: 22,2 pg
MCHC [1, 5]: 33,8 g/DL
MCV [1, 5]: 65,7 fL
Monocyte [1, 5]: 0,9 10^9/L
Neutrophil [1, 5]: 8,3 10^9/L
Platelet [1, 5]: 423,0
RBC [1, 5]: 6,2 10^12/L
Reticulocyte [1, 5]: 29.5 K/µL
Total calcium [1, 5]: 2,4 mmol/L
Total protein [1, 5]: 7,1 g/dL
Urea [1, 5]: 5,4 mmol/L
dogs with one episode of diarrhea of mild intensity for 2 days ([1]; of 10 dogs, spontaneously resolved under treatment): 2 dogs
